From patent US20030050274A1, “Composition containing S-adenosylmethionine for treating or preventing insulin resistance syndrome” (priority 2001, published 2003)

Experiments:
Assay type in all cases: in vivo, rat
[1] = tested on: OLETF (Otsuka Long Evans Tokushima Fatty) rats; experiment: Weight change of OLETF rats administered S-adenosylmethionine; parameters: Body Weight: dose or concentration left out as unconfirmed
Description: (§1) 14 six-week-old OLETF (Otsuka Long Evans Tokushima Fatty) rats (Otsuka Research Lab., Tokushima, bred for use as a non-insulin-dependent diabetes mellitus model) were evenly divided into two injection groups. The rats of two groups were administered into the abdominal cavity either with S-adenosylmethionine (SAMe(+) group) or with a vehicle containing L-lysine (SAMe(−) group) at a daily dose of 15 mg/kg body weight for a duration of up to 19 weeks. 7 six-week-old LETO (Long Evans Tokushima Otsuka) rats (Otsuka Research Lab., Tokushima, normal rats) were used as a normal control group (Control group). The rats of each group were examined for their weight changes, and checked by way of conducting glucose load tests and euglycemic hyperinsulinemic clamp tests to measure the effect of S-adenosylmethionine on the insulin secretion and insulin sensitivity.
(§2) Test data were analyzed to represent each test result in the form of mean±standard error mean. Differences in weight changes among the groups were analyzed by ANOVA with Least Significance Difference using SPSS/PC 10.0, and the differences in glucose load and clamp test results, by the Kruskall-Wallis test and checked using the Mann-Whitney probation method. The significance level was set at a p value of 0.05 or below.
(1-1) Weight Change At 0, 1, 2, 4, 8, 13, 16 and 19 weeks after the administration had begun, the weight changes of the rats of the three groups were recorded.

SD-based rats = experiment: Toxicity of orally administered S-adenosylmethionine
Description: 8 six-week-old, specific pathogen-free SD-based rats were evenly divided into four groups, which were orally administered with S-adenosylmethionine suspended in a 0.5% methylcellulose solution at a dose of 50, 100, 200 and 500 mg SAMe/kg body weight, respectively. […] Every 12 hours thereafter, the weight changes of the rats were recorded to examine the effect of S-adenosylmethionine. Further, on the 10th day, the rats were sacrificed and the internal organs were visually examined.

[2] = tested on: OLETF (Otsuka Long Evans Tokushima Fatty) rats; experiment: Euglycemic hyperinsulinemic clamp test
Description: as §1, with “The rats of each group were examined for their weight changes, and checked by way of conducting glucose load tests and euglycemic hyperinsulinemic clamp tests to measure the effect of S-adenosylmethionine on the insulin secretion and insulin sensitivity.” left out
as §2, with “The significance level was set at a p value of 0.05 or below.” left out
Based on the fact that the amount of glucose infused to maintain the steady basal level is equal to the amount of glucose consumed in the body, insulin resistance of each group was determined from the mean glucose infusion rate (mg/kg/min) during the clamp test period. […]

[3] = tested on: OLETF (Otsuka Long Evans Tokushima Fatty) rats; experiment: Glucose load test
Description: as §1, §2
On the 19th week after the administration had begun, the rats were starved for 6 hours and a 35% glucose solution (0.5 g glucose/kg body weight) was bolus-infused into each rat through the tail artery. At 0, 2, 6, 8, 10, 15, 20 and 30 minites after the infusion, a 200 μl blood sample was taken from the tail artery of each rat, centrifuged and the plasma supernatant was separated. The blood glucose level was determined by employing YSI 2300.
In addition, the glucose loss rate ( % /min) was calculated from the inclination of log-converted values of glucose concentrations measured during 2 to 15 minutes after the infusion. The glucose loss rates of the SAM(+) and SAM(−) groups were similar at 3.69±0.29 and 3.23±0.32%/min, respectively, while that of the Control group was much higher at 5.13±0.29%/min.

[4] = measurement time period 0-30 min after the infusion

C[S+](CC[C@H](N)C(=O)[O-])C[C@H]1O[C@@H](n2cnc3c(N)ncnc32)[C@H](O)[C@@H]1O (stereo partly drawn) [S-adenosylmethionine]
ratio of weight gain as compared with the SAM(−) group ([1]; OLETF rats, 15 mg/kg/day into abdominal cavity, up to 19 weeks): significantly lower | Body Weight ([1]; week 0): 220 g | Body Weight ([1]; week 1): 299 g | Body Weight ([1]; week 2): 343 g | Body Weight ([1]; week 4): 403 g | Body Weight ([1]; week 8): 464 g | Body Weight ([1]; week 13): 498 g | Body Weight ([1]; week 16): 528 g | Body Weight ([1]; week 19): 565 g | toxicity (SD-based rats; rat, oral, dose of 500 mg/kg, observed 10 days): no toxicity | autopsy: pathological abnormality of internal organs (SD-based rats; rats, oral 50-500 mg/kg, 10th day): did not develop any pathological abnormality | weight loss (SD-based rats; rats, oral 50-500 mg/kg, 10 day test period): no weight loss | survival at day 10 (SD-based rats; rats, oral single dose 50, 100, 200 and 500 mg/kg): All the rats were alive | mean glucose infusion rate ([2]; 19th week of 15 mg/kg/day, insulin 12 mU/kg/min, clamp period 60 to 120 min): 16.7 ± 1.70 mg/kg/min | insulin resistance ([2]; conclusion from clamp test): effectively lowers the insulin resistance | blood glucose levels measured at 6 and 8 minutes after the infusion as compared with the SAM(−) group ([3]; OLETF rats, 19th week of 15 mg/kg/day): significantly lower | Blood Glucose Level ([3]; OLETF rats, 19th week of 15 mg/kg/day, 0 min after 0.5 g/kg glucose infusion): 118 mg/dL | Blood Glucose Level ([3]; OLETF rats, 19th week of 15 mg/kg/day, 2 min after 0.5 g/kg glucose infusion): 368 mg/dL | Blood Glucose Level ([3]; OLETF rats, 19th week of 15 mg/kg/day, 6 min after 0.5 g/kg glucose infusion): 291 mg/dL | Blood Glucose Level ([3]; OLETF rats, 19th week of 15 mg/kg/day, 8 min after 0.5 g/kg glucose infusion): 265 mg/dL | Blood Glucose Level ([3]; OLETF rats, 19th week of 15 mg/kg/day, 10 min after 0.5 g/kg glucose infusion): 257 mg/dL | Blood Glucose Level ([3]; OLETF rats, 19th week of 15 mg/kg/day, 15 min after 0.5 g/kg glucose infusion): 224 mg/dL | Blood Glucose Level ([3]; OLETF rats, 19th week of 15 mg/kg/day, 20 min after 0.5 g/kg glucose infusion): 204 mg/dL | Blood Glucose Level ([3]; OLETF rats, 19th week of 15 mg/kg/day, 30 min after 0.5 g/kg glucose infusion): 172 mg/dL | glucose loss rate ([3]; from inclination of log-converted glucose concentrations, 2 to 15 minutes after the infusion): 3.69±0.29 %/min | area obtained by integrating the blood glucose level curve [3, 4]: 234±9.6 (mg/dl).min | area under blood glucose level curve, difference among SAM(+), SAM(−) and Control groups [3, 4]: no significant differences
